Data published in US20150148411A1, “COMPOSITIONS AND METHODS FOR DIAGNOSIS AND THERAPY OF DISORDERS RELATED TO ALTERATIONS OF MYH9” (THE ROCKEFELLER UNIVERSITY, priority 2013, published 2015).
Entries after “also recorded” stand apart in the source; their conditions may differ. Where a SMILES comes first, the peptide text is derived from it. The star is where a group is joined. Cbz = O=C(OCc1ccccc1)*

How the values were obtained:
p53 activation = assay: p53/DNA damage response: p53 immunoblot of doxorubicin-treated primary keratinocytes; type: cell-based, mouse; settings: for DDR-induced p53 activation (p53 immunoblot): doxorubicin-treated mouse keratinocytes, blebbistatin 4 μM, Y27632 10 μM, latrunculin 2 μM
Experimental: (§1) Western Blot analysis:-Protein blotting was carried out using standard protocols. Briefly, total cell lysates were prepared using RIPA (20 mM Tris-HCl (pH 8.0), 150 mM NaCl 1 mM EDTA, 1mM EGTA, 1% Triton X-100, 0.5% Deoxycorate, 0.1% SDS, 25 mM β-glycerophosphate, 10 mM NaF, 1 mM Na3VO4) supplemented with protease inhibitors (Complete mini, Roche). Blots were blocked with 5% BSA in 1×TBS 0.1% Tween-20 (TBST) for 1 h and incubated with the primary antibody overnight at 4° C. (diluted in TBST according to the manufacturer's protocol). Primary antibodies were reactive to rabbit anti-Myh9 (1:500, HPA001644, Sigma); phosphorylated (P) Erk1/2 (1:1000, #9101, Cell Signaling), Erk1/2 (1:1000, #9102, Cell Signaling), mouse anti-p53 (1:500, #2524, Cell Signaling), mouse anti-p21(F5) (1:500; sc-6246, Santa Cruz), mouse anti-GAPDH (ab8245, 1:5000; Abcam), mouse anti-Chk2 (1:500, #611570, BD); rabbit anti-P-Chk1 (1:500, #12302P, Cell Signaling); mouse anti-Chk1 (1:1000, 2360S, Cell Signaling); rabbit anti-pSmad2 (Ser465/467) (1:1000, Cell Signaling) and mouse anti-Smad2/3 (610843, 1/500; BD). Blots were washed three times in TBST for 30 min, incubated with HRP-conjugated secondary antibodies (1:2,000; Promega) for lh at room temperature, washed 3 times in TBST for 30 min and visualized using enhanced chemiluminescence (ECL).
(§2) p53/DNA damage responses:_For measurement of DNA damage response and p53 activation primary mouse keratinocytes cells were seeded at a cell density of 100,000 cells per well in a 6-well plate and allowed to grow for 24 h at 3% O2 till importantly 100% confluency. Cells were then treated with doxorubicin ([…]) as previously reported. For experiments using blebbistatin, cells were pretreated with blebbistatin (4 μM final concentration, Sigma B0560) 30 min prior to doxorubicin treatment. The Rock inhibitor Y27632 was used at 10 μM (Sigma Y0503), LatrunculinA was used at 2 μM (Sigma L5163), LeptomycinB was used at 20 nM (Sigma #9676) and the proteasome inhibitor MG132 was used at 3 μM (Sigma M7449).

nuclear p53 accumulation = assay: Nuclear p53 retention in DDR-induced Myh9-knockdown primary keratinocytes (nuclear/cytoplasmic fractions); type: cell-based, mouse; settings: LeptomycinB 20 nM; for nuclear p53 accumulation/retention after DNA damage: DDR-induced Myh9-knockdown (myosin-IIa-deficient) keratinocytes, blebbistatin 4 μM
Experimental: as §1, §2

[1] = test system: hair follicle down-growth; assay: Hair follicle and eyelid phenotype of newborn mice transduced at E9.5; type: in vivo, mouse
Experimental: Materials and Methods. Mice and lentiviral transductions: TβRII foxed mice were crossed to K14-Cre and/or Rosa26YFPlox/stop/lox mice and or K14-CreER mice. Myh9 floxed mice were purchased form EMMA (EM:02572). CD1 mice were from Charles River laboratories. Large-scale production and concentration of lentivirus (6−10^9 cfu/ml) as well as ultrasound-guided lentiviral injection were performed as previously described. As controls for knock-down mice, littermates were infected with a non-targeting scrambled-shRNA, which activates the endogenous microRNA processing pathway but is not known to target any gene. Myh9fl/fl K14CreER mice were injected i.p. with 2 mg tamoxifen (20 mg/ml stock solution in corn oil) for 5 consecutive days at 6-8 weeks of age. DMBA/TPA treatment was performed as previously described. Briefly, 7-8 week old CD1 mice in second telogen were shaved and treated with 400 nmol DMBA in 100 ul aceton one week later. Thereafter, mice were treated with […] TPA in 100 ul aceton wice weekly for 20 weeks. All animals were maintained in an AAALAC-approved animal facility and procedures were performed with protocols approved by IACUC and in accordance with the National Institutes of Health.
Immunohistochemistry and histological analyses of mouse and human Tumors: Immunohistochemistry was performed as previously described. […]

myosin-IIa = assay: Myosin-IIa protein by immunoblot/immunohistochemistry in transduced mice; type: in vivo, mouse
Experimental: Immunohistochemistry and histological analyses of mouse and human Tumors: Immunohistochemistry was performed as previously described. Briefly, 5-μm sections were cut, stained with H&E or processed for immunohistochemistry/immunofluorescence microscopy. Whole-mount staining of mammary glands was performed as described. For immunoperoxidase staining, paraffin-embedded sections were dehydrated and antigenic epitopes exposed using a 10-mM citrate buffer (pH 6.0) in a pressure cooker. Sections were incubated with the following primary antibodies at 4° C. overnight: rabbit anti-K14 (1:500; E. Fuchs) and rabbit anti-Myh9 (HPA001644, 1:500 Sigma). Primary antibody staining was visualized using peroxidase-conjugated anti-rabbit IgG followed by the DAB substrate kit for peroxidase visualization of secondary antibodies (Vector Laboratories). The following human tissue microarray comprising 48 healthy human skin samples, 30 hyperplastic skin lesions and 206 human skin SCCs as well as from 156 HNSCCs were obtained from US Biomax, Rockeville, Md.: SK244a, SK241, SK242, SK801, SK802, SK2081, SK801b and HN803a, HN811a, HN483.
Western Blot analysis:-Protein blotting was carried out using standard protocols. […]

keratinocytes = assay: Scratch wound assay on keratinocytes infected in vitro; type: cell-based, mouse; settings: versus scrambled control
H2AX, Chk1 and Chk2 = assay: DDR activation markers by Western blot (γH2AX, phosphorylated Chk1, Chk2); type: cell-based, mouse; settings: keratinocytes treated with inhibitor
Experimental: as §1, §2

HNSCC tumor suppressors = assay: Pooled in vivo shRNA screen with deep sequencing of tumors; set-up: species or system mouse; settings: deep sequencing of 87 lesions
From the text: Constructs and RNAi: shRNA constructs for the shRNA pool were obtained from The Broad Institute's Mission TRC-1 mouse library. We tested and used especially the following shRNAs targeting Brcal and Myh9:
Tumor free survival: Control and TβRII-cKO animals were transduced at E9.5 with low-titer shRNA pool targeting orthologs of putative HNSCC genes, including Brcal or Myh9. Scrambled shRNA was used as control. Transductions and knockdowns were confirmed by real-time PCR of mRNAs isolated from newborn skin epidermis or by fluorescence microscopy of a lentiviral reporter fluor, H2B-RFP or H2B-GFP. Animals were assessed biweekly for signs of tumorigenesis, and were considered positive if lesions grew to be larger than 2 mm in diameter.
Deep Sequencing: Sample preparation, preamplification and sequence processing Epidermal and tumor cells were subjected to genomic DNA isolation with the DNeasy Blood & Tissue Kit (Qiagen), and each sample was analyzed for target transduction using real-time PCR. […] Illumina reads were trimmed to the 21 nt hairpin sequence using the FASTX-Toolkit and aligned to the TRC 2.x library with BWA (v 0.6.2)44 using a maximum edit distance of 3. Hits were ranked based on (a) numbers of shRNAs that targeted the gene and scored positively in the screen, with 2 out of 5 shRNAs being considered meaningful; and (b) numbers of tumors enriched for a specific shRNA.

nuclear p53 = assay: Nuclear p53 immunofluorescence in skin 6 hours after γ-irradiation (5Gy); type: in vivo, mouse; settings: H2B-RFP labeled infected cells
From the text: Immunofluorescence staining The following primary antibodies were used for immunofluorescence: chicken anti-GFP (1:2000; Abcam); guinea-pig anti-K5 (1:500; E. Fuchs); rat anti-K14 (1:500; E. Fuchs); rabbit anti-K6 (1:500; E. Fuchs); rabbit anti-K18 (1:500; E. Fuchs); rat anti-CD104 β4-integrin (346-11A, 1:300; BD); rabbit anti loricin (1:500; E. Fuchs); rabbit anti-Caspase 3 (AF835, 1:1000; R&D), rabbit anti-K10 (PRB-159P, 1:1000; Covance); rabbit anti-Myh9 (HPA001644, 1:500 Sigma); rabbit anti-SMA (ab5694 1:300; Abcam) and rabit anti-p53 (NCL-p53-CMSp, 1:300; Leica). Secondary antibodies were conjugated to Alexa-488, 546, or 647 (1:1000, Life Technologies). Cells and tissues were processed as previously reported, and mounted in Vectashield HardSet mounting medium with DAPI (Life Technologies). […] For quantifications of nuclear p53, images were captured using an inverted Zeiss LSM 780 laser scanning microscope, powered by Zen software. Quantitative image analysis was performed using ImageJ software. To quantify p53 nuclear staining, the following formula was used: CTCF (corrected total cell fluorescence)=whole nucleus signal−(mean background signal (measured in the suprabasal layer)×area of the nucleus measured).

## CC(C)C[C@@H](C=O)NC(=O)[C@H](CC(C)C)NC(=O)[C@H](CC(C)C)NC(=O)OCc1ccccc1 [MG132] (Cbz-Leu-Leu-Leu-aldehyde)
p53 activation; Myh9-knockdown and control keratinocytes, DNA damage, MG132 3 μM
  p53 protein levels in presence of proteasome inhibitor: rescues Myh9 phenotype; also recorded: comparably induced in both Myh9-knockdown and control keratinocytes

## CCC(=C/[C@H](C)C/C=C/C(C)=C/[C@@H](C)C(=O)[C@@H](C)[C@H](O)[C@@H](C)C/C(C)=C/C(=O)O)/C=C/[C@@H]1OC(=O)C=C[C@@H]1C [leptomycinB]
Nuclear p53 accumulation
  nuclear p53 accumulation/retention after DNA damage: restored to normal levels
Nuclear p53 accumulation; listed as Leptomycin B
  nuclear p53 accumulation/retention after DNA damage: rescues the ability of Myh9-deficient cells to retain p53 in the nucleus; also recorded: restores p53 accumulation after DNA damage
Nuclear p53 accumulation; DDR-induced myosin-IIa-deficient keratinocytes
  transactivation of p53 target genes such as CDKN2 (p21): restored to normal levels

## Myh9-shRNA #504: shRNA targeting Myh9, 5′-CGGTAAATTCATTCGTATCAA-3′ (SEQ ID NO: 3)
[1]
  hair follicle down-growth: impaired hair follicle down-growth
myosin-IIa; mice transduced in utero, examined at birth
  myosin-IIa protein in skin/epidermis: loss of myosin-IIa
myosin-IIa; tumors from TβRII-cKO mice
  myosin-IIa immunolabeling in SCC tumor epithelium: absent
keratinocytes
  keratinocyte migration (wound closure): enhances keratinocyte migration

## latrunculin
H2AX, Chk1 and Chk2
  DDR activation (γH2AX, phosphorylated Chk1 and Chk2): normal DDR activation
p53 activation
  DDR-induced p53 activation (p53 immunoblot): did not display these effects

## COc1cccc2c1C(=O)c1c(O)c3c(c(O)c1C2=O)C[C@@](O)(C(=O)CO)C[C@@H]3O[C@H]1C[C@H](N)[C@H](O)[C@H](C)O1 [doxorubicin]
p53 activation; control primary keratinocytes
  p53 activation by DNA damage inducer: led to p53 activation

## Brcal-shRNA#560: positive-control shRNA targeting Brca1, 5′-CCCATCATACTTTAATGTGTA-3′ (SEQ ID NO: 1)
HNSCC tumor suppressors
  shRNA enrichment in lesions relative to initial pool and healthy skin: highly enriched

## C[C@@H](N)[C@H]1CC[C@H](C(=O)Nc2ccncc2)CC1 [Y27632]
H2AX, Chk1 and Chk2
  DDR activation (γH2AX, phosphorylated Chk1 and Chk2): normal DDR activation

## Cc1ccc2c(c1)C(=O)C1(O)CCN(c3ccccc3)C1=N2 (centres unmarked) [blebbistatin]
Nuclear p53 accumulation
  nuclear p53 accumulation/retention after DNA damage: Nuclear p53 is not retained
H2AX, Chk1 and Chk2
  DDR activation (γH2AX, phosphorylated Chk1 and Chk2): normal DDR activation
p53 activation
  DDR-induced p53 activation (p53 immunoblot): phenocopied Myh9 loss of function effects on DDR-induced p53 activation

## Myh9-shRNA #507: shRNA targeting Myh9, 5′-GCGATACTACTCAGGGCTTAT-3′ (SEQ ID NO: 6)
Nuclear p53
  nuclear p53 staining in skin: do not show efficient nuclear p53 staining
